The values below come from patent US11541055B2, “Inhibitors of human immunodeficiency virus replication” (ViiV Healthcare UK (No. 5) LIMITED, priority 2018, dated 2023).

Data set [1] relates to recombinant NL4-3 virus (Renilla luciferase) in MT-2 cells. As to the kind of experiment: HIV cell culture assay (antiviral activity, luciferase readout). Type of data set: cell-based. The following applies: Renilla, NL43. In short, it runs like this:
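Antiviral EC50 was derived via the median effect equation from luciferase signal. The signal came from MT-2 cultures infected for 4–5 days with a nef-deleted, Renilla luciferase-expressing NL4-3 reporter virus (made in 293T cells) in the presence of compound dilutions.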

The nature of data set [2]: Compound cytotoxicity, XTT-based colorimetric assay. Type of data set: cell-based. The following applies: human; uninfected MT2 cells, day 4, XTT. In short, it runs like this:
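Run under the antiviral-assay protocol but without virus. Viability was read on day 4 and CC50 values were derived from the readout.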

In the case of `CCc1cc(-c2ccc3c(=O)n(-c4ccc(Cl)c5c(NS(C)(=O)=O)nn(C)c45)c([C@H](Cc4cc(F)cc(F)c4)NC(=O)Cn4nc(C(F)F)c5c4C(F)(F)[C@@H]4C[C@H]54)nc3c2)nc(C)n1` (atropisomer, axis not shown; (P)) [Example 62, N—((S)-1-((3P)-3-(4-chloro-1-methyl-3-(methylsulfonamido)-1H-indazol-7-yl)-7-(6-ethyl-2-methylpyrimidin-4-yl)-4-oxo-3,4-dihydroquinazolin-2-yl)-2-(3,5-difluorophenyl)ethyl)-2-((3bS,4aR)-3-(difluoromethyl)-5,5-difluoro-3b,4,4a,5-tetrahydro-1H-cyclopropa[3,4]cyclopenta[1,2-c]pyrazol-1-yl)acetamide], in data set [1], the EC50 (as a rule, the midpoint of the concentration-response curve) came to 0.11 nM. The CC50 (commonly the concentration at which the toxic effect on the cells reaches its halfway point) at 4 days in data set [2] is greater than 500 nM.
Regarding `Cc1cc(-c2ccc3c(=O)n(-c4ccc(Cl)c5c(NS(C)(=O)=O)nn(CC(F)(F)F)c45)c([C@H](Cc4cc(F)cc(F)c4)NC(=O)Cn4nc(C(F)F)c5c4C(F)(F)[C@@H]4C[C@H]54)nc3c2)nc(C)n1` (atropisomer, axis not shown) [Example 103, N-[(1S)-1-{3-[4-chloro-3-methanesulfonamido-1-(2,2,2-trifluoroethyl)-1H-indazol-7-yl]-7-(2,6-dimethylpyrimidin-4-yl)-4-oxo-3,4-dihydroquinazolin-2-yl}-2-(3,5-difluorophenyl)ethyl]-2-[(2S,4R)-9-(difluoromethyl)-5,5-difluoro-7,8-diazatricyclo[4.3.0.0^2,^4]nona-1(6),8-dien-7-yl]acetamide], the EC50 in data set [1] amounted to 0.059 nM. In data set [2], this molecule displayed a CC50 at 4 days greater than 500 nM.
Turning to `Cc1ccc(F)c(-c2ccc3c(=O)n(-c4ccc(Cl)c5c(NS(C)(=O)=O)nn(C)c45)c([C@H](Cc4cc(F)cc(F)c4)NC(=O)Cn4nc(C(F)F)c5c4C(F)(F)[C@@H]4C[C@H]54)nc3c2)n1` (atropisomer, axis not shown; (P)) [Example 22, N—((S)-1-((3P)-3-(4-chloro-1-methyl-3-(methylsulfonamido)-1H-indazol-7-yl)-7-(3-fluoro-6-methylpyridin-2-yl)-4-oxo-3,4-dihydroquinazolin-2-yl)-2-(3,5-difluorophenyl)ethyl)-2-((3bS,4aR)-3-(difluoromethyl)-5,5-difluoro-3b,4,4a,5-tetrahydro-1H-cyclopropa[3,4]cyclopenta[1,2-c]pyrazol-1-yl)acetamide], in data set [1], the EC50 was found to be 0.11 nM. Besides, the CC50 at 4 days in data set [2] was greater than 500 nM.
On to `Cc1nnc(-c2ccc3c(=O)n(-c4ccc(Cl)c5c(NS(C)(=O)=O)nn(C)c45)c([C@H](Cc4cc(F)cc(F)c4)NC(=O)Cn4nc(C(F)F)c5c4C(F)(F)[C@@H]4C[C@H]54)nc3c2)nc1C` (atropisomer, axis not shown; (P)) [Example 55, N—((S)-1-((3P)-3-(4-chloro-1-methyl-3-(methylsulfonamido)-1H-indazol-7-yl)-7-(5,6-dimethyl-1,2,4-triazin-3-yl)-4-oxo-3,4-dihydroquinazolin-2-yl)-2-(3,5-difluorophenyl)ethyl)-2-((3bS,4aR)-3-(difluoromethyl)-5,5-difluoro-3b,4,4a,5-tetrahydro-1H-cyclopropa[3,4]cyclopenta[1,2-c]pyrazol-1-yl)acetamide], for which the EC50 in data set [1] is 0.032 nM. For the same molecule, in data set [2], the CC50 at 4 days is greater than 500 nM.
`COc1ccc(-c2ccc3c(=O)n(-c4ccc(Cl)c5c(NS(C)(=O)=O)nn(CC(F)F)c45)c([C@H](Cc4cc(F)cc(F)c4)NC(=O)Cn4nc(C(F)F)c5c4C(F)(F)[C@@H]4C[C@H]54)nc3c2)nn1` (atropisomer, axis not shown) [Example 129, N-[(1S)-1-{3-[4-chloro-1-(2,2-difluoroethyl)-3-methanesulfonamido-1H-indazol-7-yl]-7-(6-methoxypyridazin-3-yl)-4-oxo-3,4-dihydroquinazolin-2-yl}-2-(3,5-difluorophenyl)ethyl]-2-[(2S,4R)-9-(difluoromethyl)-5,5-difluoro-7,8-diazatricyclo[4.3.0.0^2,^4]nona-1(6),8-dien-7-yl]acetamide]: in data set [1], the EC50 turned out to be 0.054 nM. The CC50 at 4 days in data set [2] is greater than 500 nM.
Regarding `Cc1nnc(-c2ccc3c(=O)n(-c4ccc(Cl)c5c(NS(=O)(=O)C6CC6)nn(CC(F)F)c45)c([C@H](Cc4cc(F)cc(F)c4)NC(=O)Cn4nc(C(F)F)c5c4C(F)(F)[C@@H]4C[C@H]54)nc3c2)nc1C` (atropisomer, axis not shown; (P)) [Example 87, N—((S)-1-((3P)-3-(4-chloro-3-(cyclopropanesulfonamido)-1-(2,2-difluoroethyl)-1H-indazol-7-yl)-7-(5,6-dimethyl-1,2,4-triazin-3-yl)-4-oxo-3,4-dihydroquinazolin-2-yl)-2-(3,5-difluorophenyl)ethyl)-2-((3bS,4aR)-3-(difluoromethyl)-5,5-difluoro-3b,4,4a,5-tetrahydro-1H-cyclopropa[3,4]cyclopenta[1,2-c]pyrazol-1-yl)acetamide], in data set [1], the EC50 was found to be 0.058 nM. This molecule showed a CC50 at 4 days in data set [2] greater than 500 nM.
Regarding `CN(c1ccc(-c2ccc3c(=O)n(-c4ccc(Cl)c5c(NS(C)(=O)=O)nn(C)c45)c([C@H](Cc4cc(F)cc(F)c4)NC(=O)Cn4nc(C(F)F)c5c4C(F)(F)[C@@H]4C[C@H]54)nc3c2)cc1)S(C)(=O)=O` [Example 29, N—((S)-1-((3P)-3-(4-chloro-1-methyl-3-(methylsulfonamido)-1H-indazol-7-yl)-7-(4-(N-methylmethylsulfonamido)phenyl)-4-oxo-3,4-dihydroquinazolin-2-yl)-2-(3,5-difluorophenyl)ethyl)-2-((3bS,4aR)-3-(difluoromethyl)-5,5-difluoro-3b,4,4a,5-tetrahydro-1H-cyclopropa[3,4]cyclopenta[1,2-c]pyrazol-1-yl)acetamide], in data set [1], the EC50 came to 0.29 nM. Further, the CC50 at 4 days in data set [2] is greater than 500 nM.
For the molecule `Cn1nc(NS(C)(=O)=O)c2c(Cl)ccc(-n3c([C@H](Cc4cc(F)cc(F)c4)NC(=O)Cn4nc(C(F)F)c5c4C(F)(F)[C@@H]4C[C@H]54)nc4cc(-c5ncccc5S(C)(=O)=O)ccc4c3=O)c21` (atropisomer, axis not shown; (P)) [Example 8, N—((S)-1-((3P)-3-(4-chloro-1-methyl-3-(methylsulfonamido)-1H-indazol-7-yl)-7-(3-(methylsulfonyl)pyridin-2-yl)-4-oxo-3,4-dihydroquinazolin-2-yl)-2-(3,5-difluorophenyl)ethyl)-2-((3bS,4aR)-3-(difluoromethyl)-5,5-difluoro-3b,4,4a,5-tetrahydro-1H-cyclopropa[3,4]cyclopenta[1,2-c]pyrazol-1-yl)acetamide], the EC50 in data set [1] came to 0.078 nM. Also, in data set [2], the CC50 at 4 days was greater than 500 nM.
As to `Cn1nc(NS(C)(=O)=O)c2c(Cl)ccc(-n3c([C@H](Cc4cc(F)cc(F)c4)NC(=O)Cn4nc(C(F)F)c5c4C(F)(F)[C@@H]4C[C@H]54)nc4cc(-c5cccc(C(F)F)n5)ccc4c3=O)c21` (atropisomer, axis not shown) [Example 117], the EC50 in data set [1] worked out at 0.069 nM. This molecule came in with a CC50 at 4 days in data set [2] greater than 500 nM.
As for `COCc1nc(C)cc(-c2ccc3c(=O)n(-c4ccc(Cl)c5c(NS(C)(=O)=O)nn(C)c45)c([C@H](Cc4cc(F)cc(F)c4)NC(=O)Cn4nc(C(F)F)c5c4C(F)(F)[C@@H]4C[C@H]54)nc3c2)n1` (atropisomer, axis not shown; (P)) [Example 75, N—((S)-1-((3P)-3-(4-chloro-1-methyl-3-(methylsulfonamido)-1H-indazol-7-yl)-7-(2-(methoxymethyl)-6-methylpyrimidin-4-yl)-4-oxo-3,4-dihydroquinazolin-2-yl)-2-(3,5-difluorophenyl)ethyl)-2-((3bS,4aR)-3-(difluoromethyl)-5,5-difluoro-3b,4,4a,5-tetrahydro-1H-cyclopropa[3,4]cyclopenta[1,2-c]pyrazol-1-yl)acetamide], the concentration for a half-maximal effect (EC50) in data set [1] is 0.077 nM. This molecule yielded a CC50 at 4 days in data set [2] greater than 500 nM.
As to `Cn1nc(NS(C)(=O)=O)c2c(Cl)ccc(-n3c([C@H](Cc4cc(F)cc(F)c4)NC(=O)Cn4nc(C(F)F)c5c4C(F)(F)[C@@H]4C[C@H]54)nc4cc(-c5ccccc5OC(F)F)ccc4c3=O)c21` (atropisomer, axis not shown; (P)) [Example 25, N—((S)-1-((3P)-3-(4-chloro-1-methyl-3-(methylsulfonamido)-1H-indazol-7-yl)-7-(2-(difluoromethoxy)phenyl)-4-oxo-3,4-dihydroquinazolin-2-yl)-2-(3,5-difluorophenyl)ethyl)-2-((3bS,4aR)-3-(difluoromethyl)-5,5-difluoro-3b,4,4a,5-tetrahydro-1H-cyclopropa[3,4]cyclopenta[1,2-c]pyrazol-1-yl)acetamide], the EC50 in data set [1] amounted to 0.85 nM. Besides, the CC50 at 4 days in data set [2] is greater than 500 nM.
`Cc1ccnnc1-c1ccc2c(=O)n(-c3ccc(Cl)c4c(NS(C)(=O)=O)nn(C)c34)c([C@H](Cc3cc(F)cc(F)c3)NC(=O)Cn3nc(C(F)F)c4c3C(F)(F)[C@@H]3C[C@H]43)nc2c1` (atropisomer, axis not shown; (P)) [Example 51, N—((S)-1-((3P)-3-(4-chloro-1-methyl-3-(methylsulfonamido)-1H-indazol-7-yl)-7-(4-methylpyridazin-3-yl)-4-oxo-3,4-dihydroquinazolin-2-yl)-2-(3,5-difluorophenyl)ethyl)-2-((3bS,4aR)-3-(difluoromethyl)-5,5-difluoro-3b,4,4a,5-tetrahydro-1H-cyclopropa[3,4]cyclopenta[1,2-c]pyrazol-1-yl)acetamide]: the EC50 in data set [1] was 0.14 nM. Moreover, the CC50 at 4 days in data set [2] is greater than 500 nM.
